Test results taken from the supplement of paper PMC10307832.

What follows are cell lines tested with CC1=C(N=C(N=C1N)[C@H](CC(=O)N)NC[C@@H](C(=O)N)N)C(=O)N[C@@H]([C@H](C2=CN=CN2)OC3C(C(C(C(O3)CO)O)O)OC4C(C(C(C(O4)CO)O)OC(=O)N)O)C(=O)N[C@H](C)[C@H]([C@H](C)C(=O)N[C@@H]([C@@H](C)O)C(=O)NCCC5=NC(=CS5)C6=NC(=CS6)C(=O)NCCC[S+](C)C)O [Bleomycin] + CC(=O)Nc1cccc(-n2c(=O)n(C3CC3)c(=O)c3c(Nc4ccc(I)cc4F)n(C)c(=O)c(C)c32)c1 [Trametinib] (partner 0.02 µM) (assay: relative viability (nuclei count vs DMSO), 5 days (fraction); higher = more cells survive). Settings: first compound 1 µM; main component drawn.
Procedure, shortened: (§1)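 Lung cancer cell lines were pin-tool dosed in 1536-well plates on the day after seeding, with either a lone drug or a fixed anchor-drug dose plus five library-drug doses (not always all listed) in √10 steps. Nuclei were counted on 4× images after 5 days. Relative viability is the ratio of treated-well to vehicle-well nuclei counts, with each value a median of duplicate plates.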

Row | Cell Line | relative viability
1 | CAL-12T | 0.18
2 | NCI-H1793 | 0.194
3 | NCI-H1944 | 0.165
4 | NCI-H358 | 0.108

What follows are cell lines tested with CC1=C(N=C(N=C1N)[C@H](CC(=O)N)NC[C@@H](C(=O)N)N)C(=O)N[C@@H]([C@H](C2=CN=CN2)OC3C(C(C(C(O3)CO)O)O)OC4C(C(C(C(O4)CO)O)OC(=O)N)O)C(=O)N[C@H](C)[C@H]([C@H](C)C(=O)N[C@@H]([C@@H](C)O)C(=O)NCCC5=NC(=CS5)C6=NC(=CS6)C(=O)NCCC[S+](C)C)O [Bleomycin] + CC(C)C[C@H](NC(=O)[C@H](Cc1ccccc1)NC(=O)c1cnccn1)B(O)O [Bortezomib] (partner 0.002 µM) in the same assay as above. Settings: first compound 0.01 µM; main component drawn.
Procedure, shortened: as §1

Row | Cell Line | relative viability
5 | NCI-H838 | 0.67
6 | NCI-H1650 | 0.2
7 | EBC-1 | 0.474
8 | NCI-H1703 | 0.328
9 | NCI-H1993 | 1.2
10 | NCI-H2087 | 0.6
11 | PC-14 | 0.541
12 | LCLC-103H | 1.07
13 | NCI-H596 | 0.662
14 | NCI-H2228 | 1.14
15 | EMC-BAC-2 | 0.927
16 | NCI-H2085 | 0.768
17 | Calu-6 | 0.638
18 | HCC-366 | 0.736
19 | NCI-H1666 | 0.622
20 | NCI-H647 | 0.39
21 | NCI-H2126 | 1.06
22 | H3255 | 0.664
23 | IA-LM | 0.493
24 | NCI-H1299 | 0.963
25 | NCI-H1563 | 0.755
26 | ABC-1 | 0.325

Same assay, conditions: first compound 0.03162 µM; main component drawn

Row | Cell Line | relative viability
27 | NCI-H838 | 0.204
28 | NCI-H1650 | 0.216
29 | EBC-1 | 0.422
30 | NCI-H1703 | 0.276
31 | NCI-H1993 | 1.06
32 | NCI-H2087 | 0.785
33 | PC-14 | 0.253
34 | LCLC-103H | 1.12
35 | NCI-H596 | 0.686
36 | NCI-H2228 | 1.02
37 | EMC-BAC-2 | 0.92
38 | NCI-H2085 | 0.875
39 | Calu-6 | 0.673
40 | HCC-366 | 0.34
41 | NCI-H1666 | 0.427
42 | NCI-H647 | 0.299
43 | NCI-H2126 | 1.08
44 | H3255 | 0.925
45 | IA-LM | 0.746
46 | NCI-H1299 | 0.994
47 | CAL-12T | 0.87
48 | NCI-H1563 | 0.767
49 | ABC-1 | 0.311

Same assay, conditions: first compound 0.1 µM; main component drawn

Row | Cell Line | relative viability
50 | NCI-H838 | 0.23
51 | NCI-H1650 | 0.194
52 | EBC-1 | 0.469
53 | NCI-H1703 | 0.245
54 | NCI-H1993 | 0.95
55 | NCI-H2087 | 0.645
56 | PC-14 | 0.155
57 | LCLC-103H | 1.1
58 | NCI-H596 | 0.637
59 | NCI-H2228 | 0.721
60 | EMC-BAC-2 | 0.868
61 | NCI-H2085 | 0.707
62 | Calu-6 | 0.334
63 | HCC-366 | 0.293
64 | NCI-H1666 | 0.434
65 | NCI-H647 | 0.223
66 | NCI-H2126 | 1.08
67 | H3255 | 0.666
68 | IA-LM | 0.676
69 | NCI-H1299 | 0.95
70 | CAL-12T | 0.692
71 | NCI-H1563 | 0.689
72 | ABC-1 | 0.275

Same assay, conditions: first compound 0.3162 µM; main component drawn

Row | Cell Line | relative viability
73 | NCI-H838 | 0.0877
74 | NCI-H1650 | 0.167
75 | EBC-1 | 0.307
76 | NCI-H1703 | 0.134
77 | NCI-H1993 | 0.539
78 | NCI-H2087 | 0.133
79 | PC-14 | 0.0725
80 | LCLC-103H | 0.556
81 | NCI-H596 | 0.402
82 | NCI-H2228 | 0.558
83 | EMC-BAC-2 | 0.319
84 | NCI-H2085 | 0.377
85 | Calu-6 | 0.226
86 | HCC-366 | 0.0464
87 | NCI-H1666 | 0.31
88 | NCI-H647 | 0.118
89 | NCI-H2126 | 0.7
90 | H3255 | 0.283
91 | IA-LM | 0.339
92 | NCI-H1299 | 0.435
93 | CAL-12T | 0.293
94 | NCI-H1563 | 0.536
95 | ABC-1 | 0.195

Same assay, conditions: first compound 1 µM; main component drawn

Row | Cell Line | relative viability
96 | NCI-H838 | 0.152
97 | NCI-H1650 | 0.172
98 | EBC-1 | 0.233
99 | NCI-H1703 | 0.125
100 | NCI-H1993 | 0.548
101 | NCI-H2087 | 0.176
102 | PC-14 | 0.0825
103 | LCLC-103H | 0.467
104 | NCI-H596 | 0.521
105 | NCI-H2228 | 0.293
106 | EMC-BAC-2 | 0.279
107 | NCI-H2085 | 0.366
108 | Calu-6 | 0.191
109 | HCC-366 | 0.0446
110 | NCI-H1666 | 0.261
111 | NCI-H647 | 0.0632
112 | NCI-H2126 | 0.947
113 | H3255 | 0.244
114 | IA-LM | 0.269
115 | NCI-H1299 | 0.412
116 | CAL-12T | 0.28
117 | NCI-H1563 | 0.531
118 | ABC-1 | 0.242

What follows are cell lines tested with CC1=C(N=C(N=C1N)[C@H](CC(=O)N)NC[C@@H](C(=O)N)N)C(=O)N[C@@H]([C@H](C2=CN=CN2)OC3C(C(C(C(O3)CO)O)O)OC4C(C(C(C(O4)CO)O)OC(=O)N)O)C(=O)N[C@H](C)[C@H]([C@H](C)C(=O)N[C@@H]([C@@H](C)O)C(=O)NCCC5=NC(=CS5)C6=NC(=CS6)C(=O)NCCC[S+](C)C)O [Bleomycin] + Nc1ncn([C@H]2C[C@H](O)[C@@H](CO)O2)c(=O)n1 [Decitabine] (partner 2 µM) in the same assay as above. Settings: first compound 0.01 µM; main component drawn.
Procedure, shortened: as §1

Row | Cell Line | relative viability
119 | NCI-H522 | 0.736
120 | NCI-H838 | 0.398
121 | NCI-H1650 | 0.295
122 | NCI-H1993 | 0.602
123 | NCI-H2087 | 0.261
124 | PC-14 | 0.153
125 | LCLC-103H | 0.676
126 | NCI-H596 | 1
127 | NCI-H2085 | 0.558
128 | HCC-366 | 0.242
129 | NCI-H1666 | 0.699
130 | NCI-H647 | 0.289
131 | LK-2 | 0.22
